In US6444670B2 (Wyeth, priority 1998, dated 2002):

Experiments:
[1] = molecular target: T1, Human recombinant PTP1B (hPTP1B) (Homo sapiens, UniProt P18031); format: biochemical
T1 construct: made in house
T1 sequence (P18031 1-435): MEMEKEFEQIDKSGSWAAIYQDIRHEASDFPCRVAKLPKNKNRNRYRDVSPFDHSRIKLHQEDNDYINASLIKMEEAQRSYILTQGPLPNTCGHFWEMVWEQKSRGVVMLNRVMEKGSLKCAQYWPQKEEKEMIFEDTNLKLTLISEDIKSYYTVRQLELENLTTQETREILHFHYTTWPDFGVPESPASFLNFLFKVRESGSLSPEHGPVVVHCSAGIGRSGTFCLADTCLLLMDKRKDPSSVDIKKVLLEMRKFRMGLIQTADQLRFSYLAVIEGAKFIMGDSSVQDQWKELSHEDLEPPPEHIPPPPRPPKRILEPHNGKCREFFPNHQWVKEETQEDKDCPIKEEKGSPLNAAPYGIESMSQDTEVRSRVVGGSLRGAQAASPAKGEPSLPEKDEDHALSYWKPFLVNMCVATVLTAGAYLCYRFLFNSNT

[2] = test system: rat hepatic microsomal PTPases; conditions: 50 μM compound
diabetic (ob/ob) mice = test: Blood glucose lowering in diabetic (ob/ob) mice; format: in vivo, mouse; conditions: for % Change Glucose from Vehicle: plasma glucose
Source text: The procedures used and results obtained are briefly described below.
The non-insulin dependent diabetic (NIDDM) syndrome can be typically characterizes by obesity, hyperglycemia, abnormal insulin secretion, hyperinsulinemia and insulin resistance.
In each test procedure, mice [Male or female ob/ob (C57 B1/6J) and their lean litermates (ob/+ or +/+, Jackson Laboratories) ages 2 to 5 months (10 to 65 g)] of a similar age were randomized according to body weight into 4 groups of 10 mice. The mice were housed 5 per cage and are maintained on normal rodent chow with water ad libitum. Mice received test compound daily by gavage (suspended in 0.5 ml of 0.5% methyl cellulose); dissolved in the drinking water; or admixed in the diet. The dose of compounds given ranges from 2.5 to 200 mg/kg body weight/day. The dose is calculated based on the fed weekly body weight and is expressed as active moiety. […] Control mice received vehicle only.
On the morning of Day 4, 7 or 14 two drops of blood (approximetly 50 ul) were collected into sodium fluoride containing tubes either from the tail vein or after decapitation. For those studies in which the compound was administered daily by gavage the blood samples were collected 0 and 4 hours after compound administration. The plasma was isolated by centrifugation and the concentration of glucose is measured enzymatically on an Abbott V. P. Analyzer.
For each mouse, the percentage change in plasma glucose on Day 4, 7 or 14 is calculated relative to the mean plasma glucose of the vehicle treated mice. Analysis of variance followed by Dunett's Comparison Test (one-tailed) are used to estimate the significant difference between the plasma glucose values from the control group and the individual compound treated groups (CMS SAS Release 5.18).

[3] = dose 25 mg/Kg, (a) = no significant activity (p < 0.05) at this dose
[4] = dose 10 mg/Kg, (a) = no significant activity (p < 0.05) at this dose

| SMILES | IC50 [1] | % Change from Control [2] | % Change Insulin from Vehicle (diabetic (ob/ob) mice; [3]) | % Change Glucose from Vehicle (diabetic (ob/ob) mice; [3]) | % Change Insulin from Vehicle (diabetic (ob/ob) mice; dose 100 mg/Kg) | % Change Glucose from Vehicle (diabetic (ob/ob) mice; dose 100 mg/Kg) | % Change Glucose from Vehicle (diabetic (ob/ob) mice; [4]) | % Change Insulin from Vehicle (diabetic (ob/ob) mice; dose 10 mg/Kg) | % Change Glucose from Vehicle (diabetic (ob/ob) mice; dose 10 mg/Kg, measured at 0 hour) |
| --- | --- | --- | --- | --- | --- | --- | --- | --- | --- |
| Cc1sc2c(Sc3ccccc3)c3ccccc3c(-c3cc(Br)c(O[C@H](Cc4ccccc4)C(=O)O)c(Br)c3)c2c1C [Example 33, (R)-2-[2,6-dibromo-4-(2,3-dimethyl-9-phenylsulfanyl-naphtho[2,3-b]thiophen-4-yl)-phenoxy]-3-phenyl-propionic acid] | 0.029 µM | −61.92% | −39.3 ^ % | −21.10 (a) % |  |  |  |  |  |
| Cc1sc2c(Br)c3ccccc3c(-c3cc(Br)c(O[C@H](Cc4ccccc4)C(=O)O)c(C(C)C)c3)c2c1C [Example 40, (R)-2-[2-Bromo-4-(9-bromo-2,3-dimethyl-naphtho[2,3-b]thiophen-4-yl)-6-isopropyl-phenoxy]-3-phenyl-propionic acid] | 0.11 µM | −83.88% |  |  | −90.80 ^ % | −28.20 ^ % |  |  |  |
| CCc1cc(-c2c3ccccc3c(Br)c3sc(C)c(C)c23)cc(Br)c1O[C@H](Cc1ccccc1)C(=O)O [Example 43, (R)-2-[2-Bromo-4-(9-bromo-2,3-dimethyl-naphtho[2,3-b]thiophen-4-yl)-6-ethyl-phenoxy]-3-phenyl-propionic acid] | 0.171 µM | −78.84% |  | −45.2 ^ % |  |  |  |  |  |
| CCC(C)c1cc(-c2c3ccccc3c(Br)c3sc(C)c(C)c23)cc(Br)c1O[C@H](Cc1ccccc1)C(=O)O (stereo partly drawn) [Example 42, (R)-2-[2-Bromo-4-(9-bromo-2,3-dimethyl-naphtho[2,3-b]thiophen-4-yl)-6-sec-butyl-phenoxy]-3-phenyl-propionic acid] | 0.089 µM | −63.41% |  | −32.5 ^ % |  |  |  |  |  |
| Cc1c(CN2CCOCC2)sc2c(Br)c3ccccc3c(-c3cc(Br)c(OC(Cc4ccccc4)C(=O)O)c(Br)c3)c12 (centres unmarked) [Example 35, 2-[2,6-Dibromo-4-(9-bromo-3-methyl-2-morpholin-4-ylmethyl-naphtho[2,3-b]thiophen-4-yl)-phenoxy]-3-phenyl-propionic acid] | 0.273 µM | −58.85% | −2.98 (a) % | −25.58 ^ % |  |  |  |  |  |
| Cc1cc(-c2c3ccccc3c(Br)c3sc(C)c(C)c23)cc(C)c1O[C@H](Cc1ccccc1)C(=O)O [Example 49, (R)-2-[4-(9-Bromo-2,3-dimethyl-naphtho[2,3-b]thiophen-4-yl)-2,6-dimethyl-phenoxy]-3-phenyl-propionic acid] |  | −89.36% |  |  |  |  | −35.1 ^ % |  |  |
| Cc1sc2c(Br)c3ccccc3c(-c3cc(Br)c(O[C@H](Cc4ccccc4)C(=O)O)c(Br)c3)c2c1C [Example 29, (R)-2-[2,6-Dibromo-4-(9-bromo-2,3-dimethyl-naphtho[2,3-b]thiophen-4-yl)-phenoxy]3-phenyl-propionic acid] | 0.115 µM | −83.54% | −80.50 ^ % | −38.18 ^ % | −89.59 ^ % | −48.63 ^ % | −18.6 (a) % | −48.11 ^ % |  |
| CCc1cc(-c2c3ccccc3c(Br)c3sc(C)c(C)c23)cc(CC)c1O[C@H](Cc1ccccc1)C(=O)O [Example 61, (R)-2-[4-(9-Bromo-2-,3-dimethyl-naphtho[2,3-b]thiophen-4-yl)-2,6-diethyl-phenoxy]-3-phenyl-propionic acid] | 0.164 µM |  |  |  |  |  |  |  | −32.8 (c) % |
| CC1(COc2ccc(CC3SC(=O)NC3=O)cc2)CCCCC1 (centres unmarked) [Ciglitazone, 5-(4-(1-methylcyclohexylmethoxy)benzyl)-2,4-dione, reference compound] |  |  |  |  | −39 ^ % | −43 ^ % |  |  |  |
